What was measured:
Assay type in all cases: in vivo
[1] = test system: Beet Armyworm (Spodoptera exigua, LAPHEG); assay: Bioassays on Beet Armyworm (BAW), 128-well diet tray assay; conditions: Spodoptera exigua; Table ABC: Biological Results; species BAW; read-out: BAW
Outline: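 Diet-overlay assay: 50 μg/cm^2 compound applied in 90:10 acetone-water to artificial diet, allowed to dry, then infested with 1–5 L2 larvae/well; 8 wells/compound; covered, vented; 25° C., 14:10 L:D, 5–7 d; % mortality per well, averaged.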

[2] = test system: Cabbage Looper (Trichoplusia ni, TRIPNI); assay: Bioassays on Cabbage Looper (CL), 128-well diet tray assay; conditions: Trichoplusia ni; Table ABC: Biological Results; species CL; read-out: CL
Outline: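 Diet tray, 2nd instar, 1–5 larvae/well; 50 μg/cm^2 compound surface-applied (acetone:water 90:10), dried; 8 wells/treatment; 25° C, 14:10 L:D, 5–7 d; % mortality, mean of 8 wells.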

[3] = test system: Yellow Fever Mosquito (Aedes aegypti, AEDSAE); conditions: Table ABC: Biological Results; species YFM
Outline: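 Larvae ~1 day old, in liver powder/water; compound from 4000 ppm DMSO stock diluted with water/acetone (90:10); 6 reps; lidded, RT, 3 d; mortality scored per well, rated.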

Structure (SMILES)	pest or weed control at 50 µg/cm2 [1] [%]	pest or weed control at 50 µg/cm2 [2] [%]	YFM [3]
Cc1cc(NCCO)ccc1NC(=O)c1cc(NC(=O)[C@H]2[C@H](c3cc(Cl)cc(Cl)c3)C2(Cl)Cl)ccc1Cl (relative stereo) [F1130, trans-2-chloro-5-(2,2-dichloro-3-(3,5-dichlorophenyl)cyclopropane-1-carboxamido)-N-(4-((2-hydroxyethyl)amino)-2-methylphenyl)benzamide]	50 to 100	50 to 100	A (80–100)
Cc1cc(NC(=O)[C@H]2[C@H](c3ccc(F)c(Cl)c3)C2(Cl)Cl)cc(C(=O)Nc2ccc(F)cc2)c1F (relative stereo) [F1136, trans-5-(2,2-Dichloro-3-(3-chloro-4-fluorophenyl)cyclopropane-1-carboxamido)-2-fluoro-N-(4-fluorophenyl)-3-methylbenzamide]	50 to 100	50 to 100	A (80–100)
Cc1cc(NC(=O)[C@H]2[C@H](c3ccc(F)c(Cl)c3)C2(Cl)Cl)cc(C(=O)Nc2ccc(F)cc2F)c1F (relative stereo) [F1137, trans-5-(2,2-Dichloro-3-(3-chloro-4-fluorophenyl)cyclopropane-1-carboxamido)-N-(2,4-difluorophenyl)-2-fluoro-3-methylbenzamide]	50 to 100	50 to 100	A (80–100)
CC(=O)Nc1ccc(NC(=O)c2cc(NC(=O)[C@H]3[C@H](c4ccc(F)c(Cl)c4)C3(Cl)Cl)cc(C)c2F)cc1 (relative stereo) [F1139, trans-N-(4-Acetamidophenyl)-5-(2,2-dichloro-3-(3-chloro-4-fluorophenyl)-cyclopropane-1-carboxamido)-2-fluoro-3-methylbenzamide]	50 to 100	50 to 100	A (80–100)
Nc1c(F)ccc(NC(=O)c2cc(NC(=O)[C@H]3[C@H](c4ccc(I)cc4)C3(Cl)Cl)ccc2Cl)c1F (relative stereo) [F1140, trans-N-(3-Amino-2,4-difluorophenyl)-2-chloro-5-(2,2-dichloro-3-(4-iodophenyl)cyclopropane-1-carboxamido)benzamide]	50 to 100	50 to 100	A (80–100)
Nc1c(F)ccc(NC(=O)c2cc(NC(=O)[C@H]3[C@H](c4cccc(I)c4)C3(Cl)Cl)ccc2Cl)c1F (relative stereo) [F1141, trans-N-(3-Amino-2,4-difluorophenyl)-2-chloro-5-(2,2-dichloro-3-(3-iodophenyl)cyclopropane-1-carboxamido)benzamide]	50 to 100	50 to 100	A (80–100)
Nc1c(F)ccc(NC(=O)c2cc(NC(=O)[C@H]3[C@H](c4ccc(S(F)(F)(F)(F)F)cc4)C3(Cl)Cl)ccc2Cl)c1F (relative stereo) [F1142, trans-N-(3-Amino-2,4-difluorophenyl)-2-chloro-5-(2,2-dichloro-3-(4-(pentafluoro-λ^6-sulfanyl)phenyl)cyclopropane-1-carboxamido)benzamide]	50 to 100	50 to 100	A (80–100)
Nc1c(F)ccc(NC(=O)c2cc(NC(=O)[C@H]3[C@H](c4cccc(S(F)(F)(F)(F)F)c4)C3(Cl)Cl)ccc2Cl)c1F (relative stereo) [F1143, trans-N-(3-Amino-2,4-difluorophenyl)-2-chloro-5-(2,2-dichloro-3-(3-(pentafluoro-λ^6-sulfanyl)phenyl)cyclopropane-1-carboxamido)benzamide]	50 to 100	50 to 100	A (80–100)
Nc1c(F)ccc(NC(=O)c2cc(NC(=O)[C@H]3[C@H](c4cc(Cl)c(Cl)c(C(F)(F)F)c4)C3(Cl)Cl)ccc2Cl)c1F (relative stereo) [F1149, trans-N-(3-Amino-2,4-difluorophenyl)-2-chloro-5-(2,2-dichloro-3-(3,4-dichloro-5-(trifluoromethyl)phenyl)cyclopropane-1-carboxamido)benzamide]	50 to 100	50 to 100	A (80–100)
Nc1c(F)ccc(NC(=O)c2cc(NC(=O)[C@H]3[C@@H](c4cc(Cl)c(Cl)c(C(F)(F)F)c4)C3(Cl)Cl)ccc2Cl)c1F (relative stereo) [F1150, cis-N-(3-Amino-2,4-difluorophenyl)-2-chloro-5-(2,2-dichloro-3-(3,4-dichloro-5-(trifluoromethyl)phenyl)cyclopropane-1-carboxamido)benzamide]	50 to 100	50 to 100	A (80–100)
O=C(Nc1ccc(F)cc1)c1cc(NC(=O)[C@H]2[C@H](c3ccc(F)c(Cl)c3)C2(Cl)Cl)cc(F)c1Cl (relative stereo) [F1152, trans-2-Chloro-5-(2,2-dichloro-3-(3-chloro-4-fluorophenyl)cyclopropane-1-carboxamido)-3-fluoro-N-(4-fluorophenyl)benzamide]	50 to 100	50 to 100	A (80–100)
O=C(Nc1ccc(F)cc1F)c1cc(NC(=O)[C@H]2[C@H](c3ccc(F)c(Cl)c3)C2(Cl)Cl)cc(F)c1Cl (relative stereo) [F1153, trans-2-Chloro-5-(2,2-dichloro-3-(3-chloro-4-fluorophenyl)cyclopropane-1-carboxamido)-N-(2,4-difluorophenyl)-3-fluorobenzamide]	50 to 100	50 to 100	A (80–100)
CC(=O)Nc1ccc(NC(=O)c2cc(NC(=O)[C@H]3[C@H](c4ccc(F)c(Cl)c4)C3(Cl)Cl)cc(F)c2Cl)cc1 (relative stereo) [F1154, trans-N-(4-Acetamidophenyl)-2-chloro-5-(2,2-dichloro-3-(3-chloro-4-fluorophenyl)cyclopropane-1-carboxamido)-3-fluorobenzamide]	50 to 100	50 to 100	A (80–100)
CC(=O)Nc1c(F)ccc(NC(=O)c2cc(NC(=O)[C@H]3[C@H](c4cc(Cl)cc(Cl)c4)C3(Cl)Cl)ccc2Cl)c1Cl (relative stereo) [F1160, trans-N-(3-acetamido-2-chloro-4-fluorophenyl)-2-chloro-5-(2,2-dichloro-3-(3,5-dichlorophenyl)cyclopropane-1-carboxamido)benzamide]	50 to 100	50 to 100	A (80–100)
COCCNc1ccc(NC(=O)c2cc(NC(=O)[C@H]3[C@H](c4cc(Cl)cc(Cl)c4)C3(Cl)Cl)ccc2Cl)c(C)c1 (relative stereo) [F1162, trans-2-Chloro-5-(2,2-dichloro-3-(3,5-dichlorophenyl)cyclopropane-1-carboxamido)-N-(4-((2-methoxyethyl)amino)-2-methylphenyl)benzamide]	50 to 100	50 to 100	A (80–100)
O=C(Nc1ccc(F)cc1F)c1cc(NC(=O)[C@H]2[C@H](c3cc(F)c(Cl)c(C(F)(F)F)c3)C2(Cl)Cl)ccc1Cl (relative stereo) [F1163, trans-2-Chloro-5-(2,2-dichloro-3-(4-chloro-3-fluoro-5-(trifluoromethyl)phenyl)cyclopropane-1-carboxamido)-N-(2,4-difluorophenyl)benzamide]	50 to 100	50 to 100	A (80–100)

Source: US20250228239A1, “MOLECULES HAVING PESTICIDAL UTILITY, AND INTERMEDIATES, COMPOSITIONS, AND PROCESSES, RELATED THERETO” (priority 2024, published 2025)
